Assay results taken from PubChem BioAssay AID1963981 (Molecular Pharmacology Branch, DTP, NCI, 2024).

Test system: 354836-022-R-J1-PDC multicell spheroid viability
Assay: Anticancer human tumor 354836-022-R-J1-PDC patient-derived head and neck squamous cell carcinoma cell line growth inhibition [PI3K]
Conditions: for IC50: curve of first compound; for viability, T/C: stronger effect = lower value
Excerpt: Combinatorial screen of targeted agents with the PI3K inhibitors inavolisib, alpelisib, duvelisib, and copanlisib in multi-cell type tumor spheroids
A high-throughput screen of multi-cell type tumor spheroids was designed to identify active combinations of targeted small molecules and PI3K pathway inhibitors. Complex spheroids include a stromal component modeled by human endothelial cells (HUVEC) and fibroblasts modeled by human mesenchymal stem cells (MSCs). The concentration ranges selected for each drug and investigational agent were based upon clinically achievable concentrations if the clinical Cmax of the agent was known.
Compounds. The drugs and investigational agents: inavolisib (NSC800729), alpelisib (NSC765974), duvelisib (NSC772469), copanlisib (NSC816437), ipatasertib (NSC767898), afuresertib (NSC778305), talazoparib (NSC767125), sapanisertib (NSC764658), selumetinib (NSC741078), tovorafenib (DAY101, NSC766906), vemurafenib (NSC761431), ravoxertinib (NSC781343), sotorasib (NSC818433), MRTX1133 (NSC 836407), abemaciclib (NSC 768073), palbociclib (NSC758247), venetoclax (NSC 766270), SY5609 (NSC837396), enzalutamide (NSC755605), and darolutamide (NSC825331), were obtained from the National Cancer Institute (NCI) Developmental Therapeutics Program Chemical Repository. The FDA-approved anticancer drug set is available from the NCI Developmental Therapeutics Program. […] The stock solutions were prepared in dimethyl sulfoxide (DMSO, Sigma-Aldrich, St. Louis, MO, cat. D2650) at 800-fold the tested concentration and stored at -70 degrees C prior to their use. All drugs and investigational agents were tested over a range starting from a high concentration at or near the clinical Cmax and decreasing in half-log increments. If the clinical Cmax for an agent had not been determined, the highest concentration tested was 10 microM.
Cell Culture. All cells were maintained in an incubator at 37 degrees C and 5% CO2 with 95% humidity. The PDC lines were cultured according to standard operating procedures established by the NCI PDMR (https://pdmr.cancer.gov/sops/default.htm). All PDCs were thawed and cultured in Matrigel-coated flasks prepared with a working solution of 1X Ham's F-12 nutrient mix, without supplementation (Invitrogen, Waltham, MA, cat. 11765054), 100 U/mL penicillin-streptomycin (Invitrogen, cat. 15140122), and 2.5% Matrigel (Corning Inc., Corning, NY, cat. 354248) for the first three passages. The 354836-022-R-J1-PDC, 475296-252-R-J1-PDC, and 997726-040-R-J2-PDC lines were cultured in 6A media, which includes advanced DMEM/F-12 (Thermo Fisher Scientific, cat. 12634028), 10 mM HEPES (Thermo Fisher Scientific, cat. 15630080), 1X GlutaMAX supplement (Thermo Fisher Scientific, cat. 35050061), 0.1 mg/mL primocin (InvivoGen, San Diego, CA, cat. ant-pm-2), 10% defined fetal bovine serum, heat inactivated (HyClone Laboratories Inc., Logan, UT, cat. SH30070.03HI), 50% L-WRN conditioned media (ATCC, cat. CRL-3276), 1.25 mM N-Acetyl-L-cysteine (Sigma-Aldrich, cat. A9165), 10 mM nicotinamide (Sigma-Aldrich, cat. N0636), 1X B-27 supplement (Thermo Fisher Scientific, cat. 17504044), 1X N-2 supplement (Thermo Fisher Scientific, cat. 17502048), and 10 microM Y-27632 dihydrochloride (Tocris Bioscience, Bristol, United Kingdom, cat. 1254). The 624824-186-R-J2-PDC line was cultured in 6C/Colon 1B media, which includes all 6A media components plus 50 ng/mL human EGF recombinant protein (Thermo Fisher Scientific, cat. PHG0311). […]

[1] = second compound 0.00316 µM, first compound 0.0316 µM
[2] = second compound 0.00316 µM, first compound 0.1 µM
[3] = second compound 0.01 µM, first compound 0.0316 µM
[4] = second compound 0.01 µM, first compound 0.1 µM
[5] = second compound 0.0316 µM, first compound 0.0316 µM
[6] = second compound 0.0316 µM, first compound 0.1 µM
[7] = second compound 0.1 µM, first compound 0.0316 µM
[8] = second compound 0.1 µM, first compound 0.1 µM
[9] = second compound 0.316 µM, first compound 0.0316 µM
[10] = second compound 0.316 µM, first compound 0.1 µM
[11] = second compound 1 µM, first compound 0.0316 µM
[12] = second compound 1 µM, first compound 0.1 µM
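Note: spheroids exposed to agents for seven days before the viability read.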

CC(=O)c1c(C)c2cnc(Nc3ccc(N4CCNCC4)cn3)nc2n(C2CCCC2)c1=O + CC(Nc1ccc2c(c1)OCCn1cc(N3C(=O)OCC3C(F)F)nc1-2)C(N)=O
IC50 (second compound 0.00316 µM): > 0.1 µM
IC50 (second compound 0.01 µM): > 0.1 µM
IC50 (second compound 0.0316 µM): > 0.1 µM
IC50 (second compound 0.1 µM): > 0.1 µM
IC50 (second compound 0.316 µM): > 0.1 µM
IC50 (second compound 1 µM): > 0.1 µM
viability, T/C (second compound 0.00316 µM, first compound 0.000316 µM): 95.6%
viability, T/C (second compound 0.00316 µM, first compound 0.001 µM): 98%
viability, T/C (second compound 0.00316 µM, first compound 0.00316 µM): 109%
viability, T/C (second compound 0.00316 µM, first compound 0.01 µM): 82.5%
viability, T/C [1]: 102%
viability, T/C [2]: 98.7%
viability, T/C (second compound 0.01 µM, first compound 0.000316 µM): 99%
viability, T/C (second compound 0.01 µM, first compound 0.001 µM): 94.3%
viability, T/C (second compound 0.01 µM, first compound 0.00316 µM): 102%
viability, T/C (second compound 0.01 µM, first compound 0.01 µM): 90%
viability, T/C [3]: 94.8%
viability, T/C [4]: 105%
viability, T/C (second compound 0.0316 µM, first compound 0.000316 µM): 85.2%
viability, T/C (second compound 0.0316 µM, first compound 0.001 µM): 109%
viability, T/C (second compound 0.0316 µM, first compound 0.00316 µM): 92.2%
viability, T/C (second compound 0.0316 µM, first compound 0.01 µM): 97.8%
viability, T/C [5]: 98.4%
viability, T/C [6]: 101%
viability, T/C (second compound 0.1 µM, first compound 0.000316 µM): 80.7%
viability, T/C (second compound 0.1 µM, first compound 0.001 µM): 84.2%
viability, T/C (second compound 0.1 µM, first compound 0.00316 µM): 87%
viability, T/C (second compound 0.1 µM, first compound 0.01 µM): 93%
viability, T/C [7]: 96.8%
viability, T/C [8]: 80.3%
viability, T/C (second compound 0.316 µM, first compound 0.000316 µM): 65.8%
viability, T/C (second compound 0.316 µM, first compound 0.001 µM): 78.9%
viability, T/C (second compound 0.316 µM, first compound 0.00316 µM): 70.8%
viability, T/C (second compound 0.316 µM, first compound 0.01 µM): 68%
viability, T/C [9]: 70.7%
viability, T/C [10]: 72.4%
viability, T/C (second compound 1 µM, first compound 0.000316 µM): 65.5%
viability, T/C (second compound 1 µM, first compound 0.001 µM): 60%
viability, T/C (second compound 1 µM, first compound 0.00316 µM): 54.4%
viability, T/C (second compound 1 µM, first compound 0.01 µM): 65.7%
viability, T/C [11]: 62.7%
viability, T/C [12]: 63.6%

CNC(=O)c1ccc(N2C(=S)N(c3ccc(C#N)c(C(F)(F)F)c3)C(=O)C2(C)C)cc1F + CC(Nc1ccc2c(c1)OCCn1cc(N3C(=O)OCC3C(F)F)nc1-2)C(N)=O
IC50 (second compound 0.00316 µM): > 10 µM
IC50 (second compound 0.01 µM): > 10 µM
IC50 (second compound 0.0316 µM): > 10 µM
IC50 (second compound 0.1 µM): > 10 µM
IC50 (second compound 0.316 µM): > 10 µM
IC50 (second compound 1 µM): > 10 µM
viability, T/C [1]: 92.3%
viability, T/C [2]: 99%
viability, T/C (second compound 0.00316 µM, first compound 0.316 µM): 104%
viability, T/C (second compound 0.00316 µM, first compound 1 µM): 82.8%
viability, T/C (second compound 0.00316 µM, first compound 3.16 µM): 97.8%
viability, T/C (second compound 0.00316 µM, first compound 10 µM): 84.7%
viability, T/C [3]: 120%
viability, T/C [4]: 88%
viability, T/C (second compound 0.01 µM, first compound 0.316 µM): 94.3%
viability, T/C (second compound 0.01 µM, first compound 1 µM): 101%
viability, T/C (second compound 0.01 µM, first compound 3.16 µM): 93.5%
viability, T/C (second compound 0.01 µM, first compound 10 µM): 84.6%
viability, T/C [5]: 92%
viability, T/C [6]: 96.7%
viability, T/C (second compound 0.0316 µM, first compound 0.316 µM): 83.1%
viability, T/C (second compound 0.0316 µM, first compound 1 µM): 89.4%
viability, T/C (second compound 0.0316 µM, first compound 3.16 µM): 87.9%
viability, T/C (second compound 0.0316 µM, first compound 10 µM): 88.2%
viability, T/C [7]: 90.8%
viability, T/C [8]: 95.2%
viability, T/C (second compound 0.1 µM, first compound 0.316 µM): 94.2%
viability, T/C (second compound 0.1 µM, first compound 1 µM): 91%
viability, T/C (second compound 0.1 µM, first compound 3.16 µM): 88.7%
viability, T/C (second compound 0.1 µM, first compound 10 µM): 85.7%
viability, T/C [9]: 62.9%
viability, T/C [10]: 79.9%
viability, T/C (second compound 0.316 µM, first compound 0.316 µM): 74.1%
viability, T/C (second compound 0.316 µM, first compound 1 µM): 67.6%
viability, T/C (second compound 0.316 µM, first compound 3.16 µM): 77.6%
viability, T/C (second compound 0.316 µM, first compound 10 µM): 67.9%
viability, T/C [11]: 63.5%
viability, T/C [12]: 57.7%
viability, T/C (second compound 1 µM, first compound 0.316 µM): 64.3%
viability, T/C (second compound 1 µM, first compound 1 µM): 58.4%
viability, T/C (second compound 1 µM, first compound 3.16 µM): 54.3%
viability, T/C (second compound 1 µM, first compound 10 µM): 53.4%
